Marks after values point to notes of the source that are not given here.
Legend:
[1] = system: H22 hepatoma carcinoma cells transplanted tumor; assay: H22 subcutaneous transplanted tumor model, intravenous administration; conditions: for Tumor Volume (D15): 14 consecutive days; for Tumor Volume (D1): D1 (baseline), mean ± SD; for Tumor Weight: excised at end of administration; for IR (tumor weight inhibition rate): IR = (1 − TWt/TWc) × 100%
Procedure: The anticancer effect of the compound 15p was further evaluated against H22 tumor-bearing mice models by intravenous injection at doses of 2 mg/kg, or 4 mg/kg, two or three times a week, and for 14 consecutive days. Docetaxel (10 mg/kg), plinabulin (4 mg/kg), and cyclophosphamide (20 mg/kg) were used as the positive controls.
Balb/c mice (4–6 weeks old, 16–18 g) were purchased from Shanghai Sippr-BK laboratory animal Co. Ltd. The animal study protocol was approved by Institutional Review Board of Science and Technology Division of Linyi University (review opinion on behalf of the Ethics Committee) (The protocol code is LYU20220107, provided on 10 March 2022). H22 cells were grown in RPMI-1640 midium supplemented with 10% fetal bovine serum, and maintained at 37 °C in humidified 5% CO2. Cells were passaged when they reached 70–80% confluence. Viable H22 cells (1 × 10^7 cells/0.2 ml 0.9% sodium chloride) were injected into the peritoneal cavity of BALB/C mice to trigger ascitic cell growth. Later, cells were harvested and suspended. H22 cancer cells (2 × 10^7 cells/0.1 ml 0.9% sodium chloride cells) were subcutaneously injected into the right flank of each mouse. After implantation, the tumor size was measured with an electronic caliper twice a week, and the tumor volume was calculated according to the following formula: tumor volume (mm^3) = 0.5 × length × width^2. When the tumor volume reached about 130 mm^3, the xenograft tumor-bearing BALB/C mice were randomly placed into six groups at 10 mice per group: vehicle, plinabulin (4 mg/kg), 15p ([…]), 15p ([…]), cyclophosphamide (20 mg/kg) and docetaxel (10 mg/kg) groups. Docetaxel, plinabulin, and cyclophosphamide were chosen as positive control drug. The reference compound docetaxel and cyclophosphamide were completely dissolved in isotonic saline. […] The solution of compound 15p was diluted with the concentrated solution and in isotonic saline at a calculated ratio. The solutions of plinabulin were made up according to similar methods. The mice received intravenous administration (iv) every two or three days for consecutive 14 days. The tumor volumes and the body weights were recorded every two or three days after treatment. At the end of the administration period, the animals were euthanized by dislocation, and the tumor bulks were peeled off conforming to the Guide for the Animal use and Management of Shanghai Medicilon Biological Medicine Co. Ltd. The tumor volume was calculated according to the Principles of Non-clinical Research Techniques for Anti-tumor Drugs of Cytotoxic Drugs by China Food and Drug Administration.

[2] = Stability of liver microsomal metabolism; format: in vitro ADME, rat; conditions: 37 °C
Procedure: The total volume of the incubation system is 1 mL, which contains 1 mmol/L NADPH, 0.5 mg/mL rat liver microsomes, 1 μmol/L 15p standard solution, which was supplemented with K2HPO4 buffer to 1 mL. The solution should be added to the incubation system. The incubation system was rapidly incubated in a water bath shaker at 37 °C for 5 min before adding 200 μL of 5 mmol/L NADPH. The 50 μL of the incubation system was quickly removed at 0, 5, 10, 20, 40, 60, 90, 120, 150, 210, and 270 min. The concentrations of the samples to be measured (15p) in rat liver microsomes were measured by HPLC-MS/MS. Each sample was operated on three times in parallel. The experimental data were processed and plotted using the computer programs Microsoft Excel (97–2003) and Origin 7.5 software.

[3] = system: microtubules in NCI-H460 cells; assay: Immunofluorescence assay of microtubules (β-tubulin/DAPI staining); format: cell-based, human; conditions: 2 nM, 24 h
Procedure: To further explore the effect of phenylahistin derivatives 1 and 15p on microtubules in cancer cells, an immunofluorescence assay was performed. […] The inhibitory activities were consistent with the previously shown anti-proliferative activities.
NCI-H460 cells were seeded in 24-well plate (with coverslips plated) at the density of 5 × 10^4 cells. […] Then, cells were fixed with 4% cold paraformaldehyde at 4 °C for 15 min and then permeabilized in 0.05% Triton X-100 for 10 min. The cells were blocked in 1% BSA for 30 min. Microtubules were detected by incubation with a monoclonal anti-β-tubulin (β-tubulin antibody was obtained from Servicebio, Wuhan, China.) at 4 °C for 12 h. Subsequently, the cells were washed with PBS and incubated with a FITC-conjugated anti-mouse IgG antibody. Nuclei were stained with DAPI (G1012, Servicebio, Wuhan, China). The coverslips were visualized under fluorescence microscope (Nikon Eclipse C1, Nikon, Japan) and an image-forming system (Nikon DS-U3, Nikon, Tokyo, Japan).

[4] = Plasma stability in vitro; format: in vitro ADME, wistar rats; conditions: 10 μmol/L, 37 °C, up to 120 min
Procedure: Compounds 15p. 15p were weighed and dissolved in DMSO to prepare a master batch with a concentration of 1 mg/mL. The plasma was obtained from wistar male rats, and stored at −20 °C for pending use. The 10 μmol/L of the sample solution to be tested was vortexed and mixed, and rapidly incubated in a 37 °C water bath shaker. The 100 μL of the incubation system was removed at 0 min, 5 min, 10 min, 20 min, 40 min, 60 min, 90 min, and 120 min of the reaction, respectively. The remaining amount of compound was detected (note: each sample was operated three times in parallel). The concentrations of the samples to be measured (15p) in rat plasma were detected by HPLC-MS/MS, and the experimental data were processed and plotted using the computer programs Microsoft Excel (Microsoft 97–2003, Redmond, Washington, DC, USA) and Origin 8.5 (OriginLab, Northampton, MA, USA).

[5] = 2 mg/kg iv, listed as Compound 15p
[6] = 4 mg/kg iv, listed as Compound 15p

melting point: 200 to 202 °C | Clearance by liver microsomes ([2]; NADPH): quickly cleared by liver microsomes | Total clearance (CL) at 1 μmol/L ([2]; Wistar, rat, rat liver microsomes, rat liver microsomes 0.5 mg/mL, 1 μmol/L): 4.84 L/h/kg | CLint scaled at 1 μmol/L ([2]; Wistar, rat, rat liver microsomes, rat liver microsomes 0.5 mg/mL, 1 μmol/L, read-out: CLint (intrinsic clearance)): 46.3 L/h/kg | half-life at 1 μmol/L ([2]; Wistar, rat liver microsomes 0.5 mg/mL, 1 μmol/L): 7.07 min | Plasma stability [4]: very stable
SMILES: C=CCn1cnc(/C=c2\[nH]c(=O)/c(=C/c3cccc(C(=O)c4ccc(F)cc4)c3)[nH]c2=O)c1C(C)C [15p]
Tumor Volume (D15) ([1]; 2 mg/kg iv): 1453.6 mm^3 | Tumor Volume (D15) [1, 5]: 1453.6 ± 909.5 mm^3 | Tumor Volume (D1) ([1]; 2 mg/kg iv): 103.7 ± 29.99 mm^3 | Tumor Weight ([1]; 2 mg/kg iv): 0.82 g | Tumor Weight [1, 5]: 0.82 ± 0.47 g | IR (tumor weight inhibition rate) ([1]; 2 mg/kg iv): 27.6% | Tumor Volume (D15) ([1]; 4 mg/kg iv): 674.5 mm^3 | Tumor Volume (D15) [1, 6]: 674.5 ± 274.0* mm^3 | Tumor Volume (D1) ([1]; 4 mg/kg iv): 102.2 ± 28.62 mm^3 | Tumor Weight ([1]; 4 mg/kg iv): 0.39 g | Tumor Weight [1, 6]: 0.39 ± 0.22 g | IR (tumor weight inhibition rate) ([1]; 4 mg/kg iv): 65% | IR (tumor weight inhibition rate) [1, 6]: 65.2% | Effect on microtubule networks [3]: microtubule networks were damaged

Source: PMC9785606, “Design and Synthesis of Novel Phenylahistin Derivatives Based on Co-Crystal Structures as Potent Microtubule Inhibitors for Anti-Cancer Therapy” (Marine Drugs, 2022)
